Literature values in patent publication US11331392B2, “Biodegradable thermo-responsive polymers and uses thereof” (The Trustees of Columbia University in the City of New York, priority 2014, dated 2022).

Test system: endothelial and tumor cells

Compound: Cc1cc(O)ccc1O [methylhydroquinone (MHQ), methylhydroquinone]
- concentration range inhibiting growth of cells in culture: micromolar range
